Assay results taken from patent publication US20100285957A1, “THIAZOLYLOXYPHENYLAMIDINES OR THIADIAZOLYLOXYPHENYLAMIDINES AND THEIR USE AS FUNGICIDES” (Bayer CropScience AG, priority 2007, published 2010).
Where two headings read alike, the source gives them in different places.

What was measured:
[1] = tested on: Phakopsora pachyrhizi; experiment: Phakopsora test (soya)/protective; assay type: in vivo; details: 264 h, 100 ppm active substance, protective, evaluation 11 days after inoculation, read-out: degree of effectiveness
Experimental: Phakopsora Test (Soya)/Protective
(§1) To prepare a suitable active substance composition, 1 part by weight of active substance is mixed with the given amounts of solvent and emulsifier and the concentrate is diluted to the desired concentration using water.
For the testing of protective effectiveness, young plants are sprayed with the active substance composition in the application rate given. After the spray coating has been dried on, the plants are inoculated with an aqueous suspension of the spores of Phakopsora pachyrhizi and then remain in an incubation chamber at approximately 20° C. and 80% relative humidity for 1 day.
Evaluation is carried out 11 days after the inoculation. In this connection, 0% means a degree of effectiveness corresponding to that of the control, while a degree of effectiveness of 100% means that no infestation is observed.

[2] = tested on: Sphaerotheca fuliginea; experiment: Sphaerotheca test (cucumber)/protective; assay type: in vivo; details: Podosphaera fuliginea, 168 h, 100 ppm active substance, protective, evaluation 7 days after inoculation, read-out: degree of effectiveness
Experimental: Sphaerotheca Test (Cucumber)/Protective [table] To prepare a suitable active substance composition, 1 part by weight of active substance is mixed with the given amounts of solvents and emulsifier and the concentrate is diluted to the desired concentration using water. For the testing of protective effectiveness, young plants are sprayed with the active substance composition in the application rate given. After the spray coating has been dried on, the plants are inoculated with an aqueous suspension of spores of Sphaerotheca fuliginea. The plants are then placed in a greenhouse at approximately 23° C. and a relative humidity of approximately 70%. Evaluation is carried out 7 days after the inoculation. In this connection, 0% means a degree of effectiveness corresponding to that of the control, while a degree of effectiveness of 100% means that no infestation is observed.

[3] = tested on: Uromyces appendiculatus; experiment: Uromyces test (beans)/protective; assay type: in vivo; details: 240 h, 100 ppm active substance, protective, evaluation 10 days after inoculation, read-out: degree of effectiveness
Experimental: Uromyces Test (Beans)/Protective [table] To prepare a suitable active substance composition, 1 part by weight of active substance is mixed with the given amounts of solvents and emulsifier and the concentrate is diluted to the desired concentration using water. For the testing of protective effectiveness, young plants are sprayed with the active substance composition in the application rate given. After the spray coating has been dried on, the plants are inoculated with an aqueous suspension of the spores of the bean rust pathogen Uromyces appendiculatus and then remain in an incubation chamber at approximately 20° C. and 100% relative humidity for 1 day. The plants are then placed in a greenhouse at approximately 21° C. and a relative humidity of approximately 90%. Evaluation is carried out 10 days after the inoculation. In this connection, 0% means a degree of effectiveness corresponding to that of the control, while a degree of effectiveness of 100% means that no infestation is observed.

[4] = tested on: Pyrenophora teres; experiment: Pyrenophora teres test (barley)/protective; assay type: in vivo; details: 500 ppm active substance, protective, evaluation 7-9 days after inoculation, read-out: degree of effectiveness
Experimental: Pyrenophora teres Test (Barley)/Protective
as §1
For the testing of protective effectiveness, young barley plants are sprayed with the active substance composition in the application rate given. 1 day after the treatment, the plants are inoculated with an aqueous suspension of the spores of Pyrenophora teres and then remain at 100% relative humidity and 20° C. for 48 h. Subsequently, the plants are placed in a greenhouse at 80% relative humidity and a temperature of 20° C.
Evaluation is carried out 7-9 days after the inoculation. In this connection, 0% means a degree of effectiveness corresponding to that of the control, while a degree of effectiveness of 100% means that no infestation is observed.

[5] = physchem
[6] = tested on: Alternaria solani; experiment: Alternaria test (tomato)/protective; assay type: in vivo; details: 168 h, 500 ppm active substance, protective, evaluation 7 days after inoculation, read-out: degree of effectiveness
Experimental: Alternaria Test (Tomato)/Protective [table] To prepare a suitable active substance composition, 1 part by weight of active substance is mixed with the given amounts of solvent and emulsifier and the concentrate is diluted to the desired concentration using water. For the testing of protective effectiveness, young tomato plants are sprayed with the active substance composition in the application rate given. 1 day after the treatment, the plants are inoculated with a suspension of the spores of Alternaria solani and then stand at 100% relative humidity and 20° C. for 24 h. Subsequently, the plants stand at 96% relative humidity and a temperature of 20° C. Evaluation is carried out 7 days after the inoculation. In this connection, 0% means a degree of effectiveness corresponding to that of the control, while a degree of effectiveness of 100% means that no infestation is observed.

[7] = tested on: Blumeria graminis f.sp. hordei; experiment: Blumeria graminis test (barley)/protective; assay type: in vivo; details: 168 h, 1000 ppm active substance, protective, evaluation 7 days after inoculation, read-out: degree of effectiveness
Experimental: Blumeria graminis Test (Barley)/Protective
as §1
For the testing of protective effectiveness, young plants are sprayed with the active substance composition in the application rate given.
After the spray coating has been dried on, the plants are dusted with spores of Blumeria graminis f.sp. hordei.
The plants are placed in a greenhouse at a temperature of approximately 20° C. and a relative humidity of approximately 80%, in order to encourage the development of mildew pustules.
Evaluation is carried out 7 days after the inoculation. In this connection, 0% means a degree of effectiveness corresponding to that of the control, while a degree of effectiveness of 100% means that no infestation is observed.

[8] = tested on: Puccinia recondita var. tritici; experiment: Puccinia test (wheat)/protective; assay type: in vivo; details: 240 h, 1000 ppm active substance, protective, evaluation 10 days after inoculation, read-out: degree of effectiveness
Experimental: Puccinia Test (Wheat)/Protective
as §1
For the testing of protective effectiveness, young plants are sprayed with the active substance composition in the application rate given. After the spray coating has been dried on, the plants are sprayed with a suspension of the conidia of Puccinia recondita var. tritici. The plants remain in an incubation chamber at 20° C. and 100% relative humidity for 48 hours.
The plants are then placed in a greenhouse at a temperature of approximately 20° C. and a relative humidity of 80%, in order to encourage the development of rust pustules.
Evaluation is carried out 10 days after the inoculation. In this connection, 0% means a degree of effectiveness corresponding to that of the control, while a degree of effectiveness of 100% means that no infestation is observed.

| logP [5] | logP ([5]; pH 2.3) | Structure (SMILES) | pest or weed control at 100 ppm [1] [%] | pest or weed control at 100 ppm [2] [%] | pest or weed control at 100 ppm [3] [%] | pest or weed control at 500 ppm [4] [%] | pest or weed control at 500 ppm [6] [%] | pest or weed control at 1000 ppm [7] [%] | pest or weed control at 1000 ppm [8] [%] |
| --- | --- | --- | --- | --- | --- | --- | --- | --- | --- |
| 5.08 | 1.92 | CCN(C)C=Nc1cc(C)c(Oc2nc(C3(F)CC3)c(Cl)s2)cc1C [Compound 30, N′-(4-{[5-Chloro-4-(1-fluorocyclopropyl)-1,3-thiazol-2-yl]oxy}-2,5-dimethylphenyl)-N-ethyl-N-methylimidoformamide] | ≥ 80 | ≥ 70 | ≥ 70 | ≥ 70 |  |  |  |
| 4.38 | 1.58 | CCN(C)C=Nc1cc(C)c(Oc2nc(C3(F)CC3)cs2)cc1C [Compound 29, N-Ethyl-N′-(4-{[4-(1-fluorocyclopropyl)-1,3-thiazol-2-yl]oxy}-2,5-dimethylphenyl)-N-methylimidoformamide] | ≥ 80 | ≥ 70 | ≥ 70 | ≥ 70 | ≥ 70 |  |  |
|  | 1.91 | Cc1cc(Oc2nc(C3CC3)ns2)c(C)cc1N=CN(C)C(C)C [Compound 2, N′-{4-[(3-Cyclopropyl-1,2,4-thiadiazol-5-yl)oxy]-2,5-dimethylphenyl}-N-methyl-N-(1-methyl-ethyl)imidoformamide] | ≥ 80 | ≥ 70 | ≥ 70 | ≥ 70 | ≥ 70 | ≥ 70 | ≥ 70 |
| 6.02 | 2.47 | Cc1cc(Oc2nc(C3(Cl)CC3)c(Cl)s2)c(C)cc1/N=C/N1CCCCC1 [Compound 8, 4-{[5-Chloro-4-(1-chlorocyclopropyl)-1,3-thiazol-2-yl]oxy}-2,5-dimethyl-N-[(1E)-piperidin-1-ylmethylidene]aniline] | ≥ 80 | ≥ 70 | ≥ 70 | ≥ 70 | ≥ 70 | ≥ 70 | ≥ 70 |
| 5.86 | 2.22 | Cc1cc(Oc2nc(C3(Cl)CC3)c(Cl)s2)c(C)cc1N=CN(C)C(C)C [Compound 17, N′-(4-{[5-Chloro-4-(1-chlorocyclopropyl)-1,3-thiazol-2-yl]oxy}-2,5-dimethylphenyl)-N-methyl-N-(1-methylethyl)imidoformamide] | ≥ 80 | ≥ 70 | ≥ 70 | ≥ 70 |  | ≥ 70 | ≥ 70 |
|  | 2.03 | Cc1cc(Oc2nc(C3(C)CC3)ns2)c(C)cc1N=CN(C)C(C)C [Compound 10, N′-(2,5-Dimethyl-4-{[3-(1-methylcyclopropyl)-1,2,4-thiadiazol-5-yl]oxy}phenyl)-N-methyl-N-(1-methylethyl)imidoformamide] | ≥ 80 | ≥ 70 | ≥ 70 | ≥ 70 |  | ≥ 70 | ≥ 70 |
|  | 1.59 | CCN(C)C=Nc1cc(C)c(Oc2nc(C3(Cl)CC3)ns2)cc1C [Compound 12, N′-(4-{[3-(1-Chlorocyclopropyl)-1,2,4-thiadiazol-5-yl]oxy}-2,5-dimethylphenyl)-N-ethyl-N-methylimidoformamide] | ≥ 80 | ≥ 70 | ≥ 70 | ≥ 70 |  | ≥ 70 | ≥ 70 |
|  | 2.21 | CCN(C)C=Nc1cc(C)c(Oc2nc(C3(CC)C(C)C3(Cl)Cl)ns2)cc1C (stereo not drawn) [Compound 27, N′-(4-{[3-(2,2-Dichloro-1-ethyl-3-methylcyclopropyl)-1,2,4-thiadiazol-5-yl]oxy}-2,5-dimethylphenyl)-N-ethyl-N-methylimidoformamide] | ≥ 80 | ≥ 70 | ≥ 70 | ≥ 70 |  |  |  |
